According to ChEMBL document CHEMBL5338775, “Discovery of a Novel Class of PROTACs as Potent and Selective Estrogen Receptor α Degraders to Overcome Endocrine-Resistant Breast Cancer In Vitro and In Vivo” (J Med Chem, 2023):
The source made the active and inactive calls. The calls are words filed in the database; no cut-off is given here.

Assays:
[1] = system: T47D; test: cells; conditions: Homo sapiens, 72 h
[2] = Selectivity ratio of relative binding affinity for ERalpha (unknown origin) to relative binding affinity to ERbeta (unknown origin)
[3] = target: T1, Estrogen receptor (Homo sapiens, UniProt P03372)
T1 sequence (P03372 whole entry): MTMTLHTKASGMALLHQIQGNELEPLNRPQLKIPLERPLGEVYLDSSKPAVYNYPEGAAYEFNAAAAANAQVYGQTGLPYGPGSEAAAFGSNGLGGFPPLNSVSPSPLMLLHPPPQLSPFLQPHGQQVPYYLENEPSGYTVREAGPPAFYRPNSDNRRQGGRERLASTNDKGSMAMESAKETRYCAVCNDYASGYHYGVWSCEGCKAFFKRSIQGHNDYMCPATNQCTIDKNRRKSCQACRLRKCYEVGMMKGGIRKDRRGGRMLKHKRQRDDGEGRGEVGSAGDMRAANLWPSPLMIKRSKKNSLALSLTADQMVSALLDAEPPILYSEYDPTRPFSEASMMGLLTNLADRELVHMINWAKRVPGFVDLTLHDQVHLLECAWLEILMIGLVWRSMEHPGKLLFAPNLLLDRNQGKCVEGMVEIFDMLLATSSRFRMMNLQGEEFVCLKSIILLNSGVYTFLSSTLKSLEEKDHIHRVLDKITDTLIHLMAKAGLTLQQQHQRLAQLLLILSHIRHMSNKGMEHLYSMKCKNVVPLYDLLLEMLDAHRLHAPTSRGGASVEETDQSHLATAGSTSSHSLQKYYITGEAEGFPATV

[4] = Selectivity index, ratio of Ki for ERalpha (unknown origin) to Ki for ERbeta (unknown origin)
[5] = cells; conditions: Homo sapiens, Tamoxifen-resistant LCC2 cell, 72 h
[6] = system: MDA-MB-231; test: cells; conditions: Homo sapiens, MDA-MB-231, 72 h
[7] = in vitro; conditions: human, MCF-10A cells
[8] = system: MCF7; test: cells; conditions: Homo sapiens, MCF7, 72 h
[9] = target: T2, Estrogen receptor beta (Homo sapiens, UniProt Q92731)
T2 sequence (Q92731 whole entry): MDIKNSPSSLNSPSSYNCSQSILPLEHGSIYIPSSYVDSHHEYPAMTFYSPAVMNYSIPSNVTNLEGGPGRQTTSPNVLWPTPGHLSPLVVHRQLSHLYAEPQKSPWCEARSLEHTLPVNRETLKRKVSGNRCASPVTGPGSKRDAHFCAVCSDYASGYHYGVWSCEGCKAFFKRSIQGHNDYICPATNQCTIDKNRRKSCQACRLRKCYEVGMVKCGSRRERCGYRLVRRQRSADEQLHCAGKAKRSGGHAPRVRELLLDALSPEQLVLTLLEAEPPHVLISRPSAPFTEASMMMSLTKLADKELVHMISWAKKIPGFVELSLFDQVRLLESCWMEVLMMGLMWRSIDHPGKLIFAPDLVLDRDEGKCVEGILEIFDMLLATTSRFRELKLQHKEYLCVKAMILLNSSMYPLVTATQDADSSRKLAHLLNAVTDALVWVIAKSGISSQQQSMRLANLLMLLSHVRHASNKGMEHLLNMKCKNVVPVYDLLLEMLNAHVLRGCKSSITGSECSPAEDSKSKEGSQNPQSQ

[10] = system: T47D; test: cells; conditions: Homo sapiens, 72 h; remark: listed apart in the source
[11] = target: T2, Estrogen receptor beta; test: Binding affinity to ERbeta (unknown origin) assessed as relative binding affinity incubated for 2 hrs by fluorescence polarization assay relative to estradiol
[12] = system: T47D; test: cells; conditions: Homo sapiens, 72 h; remark: listed apart in the source
[13] = target: Protein cereblon/Estrogen receptor (Homo sapiens) (UniProt P03372+Q96SW2); test: PROTAC activity at CRBN/wild type ERalpha in ER-positive human MCF7 cells assessed as induction of ERalpha degradation at 1 uM incubated for 12 hrs by Western blot analysis; format: cell-based
Protein cereblon/Estrogen receptor (Homo sapiens), sequence (Q96SW2 whole entry, looked up, one chain of several): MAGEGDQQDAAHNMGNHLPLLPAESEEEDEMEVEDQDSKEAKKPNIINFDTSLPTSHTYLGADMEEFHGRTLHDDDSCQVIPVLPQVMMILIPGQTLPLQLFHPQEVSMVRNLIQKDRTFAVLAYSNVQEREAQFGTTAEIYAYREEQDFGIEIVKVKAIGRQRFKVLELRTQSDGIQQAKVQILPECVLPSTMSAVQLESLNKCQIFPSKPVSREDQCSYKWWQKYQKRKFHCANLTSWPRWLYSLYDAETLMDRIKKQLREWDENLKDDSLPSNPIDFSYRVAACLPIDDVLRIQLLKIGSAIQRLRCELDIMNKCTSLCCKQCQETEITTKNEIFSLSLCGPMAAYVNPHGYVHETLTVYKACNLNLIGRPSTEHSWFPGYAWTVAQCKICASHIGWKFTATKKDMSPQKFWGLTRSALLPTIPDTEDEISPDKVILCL

[14] = target: von Hippel-Lindau disease tumor suppressor/Estrogen receptor (Homo sapiens) (UniProt P03372+P40337); test: PROTAC activity at VHL/wild type ERalpha in ER-positive human MCF7 cells assessed as induction of ERalpha degradation at 1 uM incubated for 12 hrs by Western blot analysis; format: cell-based
von Hippel-Lindau disease tumor suppressor/Estrogen receptor (Homo sapiens), sequence (P40337 whole entry, looked up, one chain of several): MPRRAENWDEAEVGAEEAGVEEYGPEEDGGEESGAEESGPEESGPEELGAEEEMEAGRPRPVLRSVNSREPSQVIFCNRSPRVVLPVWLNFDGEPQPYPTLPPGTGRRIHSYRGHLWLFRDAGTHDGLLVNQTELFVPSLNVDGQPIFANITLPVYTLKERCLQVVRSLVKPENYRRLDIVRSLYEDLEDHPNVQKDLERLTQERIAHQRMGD

SMILES | IC50 [1] [µM] | Selectivity ratio [2] | Ki [3] [µM] | Ratio Ki [4] | IC50 [5] [µM] | IC50 [6] [µM] | IC50 at 72 h [7] [µM] | IC50 [8] [µM] | Ki [9] [µM] | IC50 [10] [µM] | RBA [11] [%] | IC50 [12] [µM] | Activity [13] | Activity [14]
CCN(c1ccc(OCCCCC(=O)N[C@H](C(=O)N2C[C@H](O)C[C@H]2C(=O)NCc2ccc(-c3scnc3C)cc2)C(C)(C)C)cc1)S(=O)(=O)C1CC2OC1C(c1ccc(O)cc1)=C2c1ccc(O)cc1 (some centres not stated) | 7.27 | 2.15 | 0.73 | 8.34 | 15.2 | > 100 | 1.03 | 1.11 | 6.05 | 4.58 | 0.13 | 3.03 |  | 
O=C(COc1cccc2c1C(=O)N(C1CCC(=O)NC1=O)C2=O)NCCCCCCCCOc1ccc(N(CC(F)(F)F)S(=O)(=O)C2CC3OC2C(c2ccc(O)cc2)=C3c2ccc(O)cc2)cc1 (configuration not stated) | > 50 | 0.88 | 1.45 | 3.39 | > 50 | > 100 | > 100 | > 50 | 4.91 | > 50 | 0.16 | > 50 | inactive | 
CCN(c1ccc(OCCCCCCCC(=O)N[C@H](C(=O)N2C[C@H](O)C[C@H]2C(=O)NCc2ccc(-c3scnc3C)cc2)C(C)(C)C)cc1)S(=O)(=O)C1CC2OC1C(c1ccc(O)cc1)=C2c1ccc(O)cc1 (some centres not stated) | > 30 | 2.7 | 0.75 | 10.4 | > 30 | > 100 | > 100 | > 10 | 7.86 | > 30 | 0.1 | > 30 |  | 
CCN(c1ccc(OCCCCCC(=O)Nc2cccc3c2C(=O)N(C2CCC(=O)NC2=O)C3=O)cc1)S(=O)(=O)C1CC2OC1C(c1ccc(O)cc1)=C2c1ccc(O)cc1 (configuration not stated) | > 100 | 1.17 | 0.97 | 4.52 | > 100 | > 100 | > 100 | > 100 | 4.37 | > 100 | 0.18 | > 100 | inactive | 
O=C(COc1cccc2c1C(=O)N(C1CCC(=O)NC1=O)C2=O)NCCCCCCOc1ccc(N(CC(F)(F)F)S(=O)(=O)C2CC3OC2C(c2ccc(O)cc2)=C3c2ccc(O)cc2)cc1 (configuration not stated) | > 30 | 1.1 | 1.85 | 4.26 | > 30 | > 100 | > 100 | 11 | 7.86 | > 30 | 0.1 | 25.4 | Active | 
CCN(c1ccc(OCCCCCCC(=O)N[C@H](C(=O)N2C[C@H](O)C[C@H]2C(=O)NCc2ccc(-c3scnc3C)cc2)C(C)(C)C)cc1)S(=O)(=O)C1CC2OC1C(c1ccc(O)cc1)=C2c1ccc(O)cc1 (some centres not stated) | > 30 | 1.58 | 1.07 | 6.13 | > 30 | > 100 | > 100 | 0.43 | 6.55 | > 30 | 0.12 | > 30 |  | 
O=C(COc1ccc(C2CCC(=O)NC2=O)cc1)NCCCCNC(=O)COc1ccc(N(CC(F)(F)F)S(=O)(=O)C2CC3OC2C(c2ccc(O)cc2)=C3c2ccc(O)cc2)cc1 (configuration not stated) | 15.2 | 0.89 | 1.27 | 3.44 | 14.5 | > 100 | 9.45 | 0.69 | 4.37 | 17.7 | 0.18 | 14.6 | Active | 
CCN(c1ccc(OCCCCC(=O)N[C@H](C(=O)N2C[C@H](O)C[C@H]2C(=O)N[C@@H](C)c2ccc(-c3scnc3C)cc2)C(C)(C)C)cc1)S(=O)(=O)C1CC2OC1C(c1ccc(O)cc1)=C2c1ccc(O)cc1 (some centres not stated) | 18.1 | 1.45 | 1.27 | 5.63 | 16.8 | > 100 | 2.4 | 0.93 | 7.15 | 14.6 | 0.11 | 14.2 |  | 
CCN(c1ccc(OCCCCCCCCC(=O)N[C@H](C(=O)N2C[C@H](O)C[C@H]2C(=O)NCc2ccc(-c3scnc3C)cc2)C(C)(C)C)cc1)S(=O)(=O)C1CC2OC1C(c1ccc(O)cc1)=C2c1ccc(O)cc1 (some centres not stated) | > 30 | 0.57 | 5.08 | 2.21 | > 30 | > 100 | > 100 | > 10 | 11.2 | > 30 | 0.07 | > 30 |  | 
CCN(c1ccc(OCCCCCCCCCC(=O)N[C@H](C(=O)N2C[C@H](O)C[C@H]2C(=O)NCc2ccc(-c3scnc3C)cc2)C(C)(C)C)cc1)S(=O)(=O)C1CC2OC1C(c1ccc(O)cc1)=C2c1ccc(O)cc1 (some centres not stated) | > 30 | 0.75 | 3.38 | 2.9 | > 30 | > 100 | > 100 | > 10 | 9.83 | > 30 | 0.08 | > 30 |  | 
O=C(COc1cccc2c1C(=O)N(C1CCC(=O)NC1=O)C2=O)NCCCCOc1ccc(N(CC(F)(F)F)S(=O)(=O)C2CC3OC2C(c2ccc(O)cc2)=C3c2ccc(O)cc2)cc1 (configuration not stated) | > 50 | 0.86 | 3.38 | 3.32 | > 50 | > 100 | > 100 | > 50 | 11.2 | > 50 | 0.07 | > 50 | inactive | 
O=C(COc1ccc(C2CCC(=O)NC2=O)cc1)NCCNC(=O)COc1ccc(N(CC(F)(F)F)S(=O)(=O)C2CC3OC2C(c2ccc(O)cc2)=C3c2ccc(O)cc2)cc1 (configuration not stated) | 21.4 | 1.31 | 0.97 | 5.08 | 21 | > 100 | 13.7 | 1.14 | 4.91 | 19.7 | 0.16 | 17.3 | Active | 
CCN(c1ccc(OCCCCCCC(=O)N[C@H](C(=O)N2C[C@H](O)C[C@H]2C(=O)N[C@@H](C)c2ccc(-c3scnc3C)cc2)C(C)(C)C)cc1)S(=O)(=O)C1CC2OC1C(c1ccc(O)cc1)=C2c1ccc(O)cc1 (some centres not stated) | > 30 | 1.43 | 2.03 | 5.53 | > 30 | > 100 | > 100 | 0.57 | 11.2 | > 30 | 0.07 | > 30 |  | 
O=C(COc1ccc(C2CCC(=O)NC2=O)cc1)NCCCCCCNC(=O)COc1ccc(N(CC(F)(F)F)S(=O)(=O)C2CC3OC2C(c2ccc(O)cc2)=C3c2ccc(O)cc2)cc1 (configuration not stated) | > 30 | 1.64 | 1.13 | 6.34 | > 30 | > 100 | > 30 | 6.52 | 7.15 | > 30 | 0.11 | > 30 | Active | 
COc1ccc(N(CC(F)(F)F)S(=O)(=O)C2CC3OC2C(c2ccc(OCCCCCC(=O)N[C@H](C(=O)N4C[C@H](O)C[C@H]4C(=O)NCc4ccc(-c5scnc5C)cc4)C(C)(C)C)cc2)=C3c2ccc(O)cc2)cc1 (some centres not stated) | > 30 | 1.57 | 1.85 | 6.08 | > 30 | > 100 | > 100 | > 10 | 11.2 | > 30 | 0.07 | > 30 |  | inactive
CC/C(=C(\c1ccc(O)cc1)c1ccc(OCCN(C)C)cc1)c1ccccc1 [AFIMOXIFENE] | 9.89 |  |  |  | 22.2 |  |  |  |  | 11.6 |  | 1.95 |  | 
